{"source": "patent US12171752B2", "about": "“Methods of treating post-COVID condition(s)” (priority 2022, dated 2024)", "key": {"PDE 4": {"system": "PDE 4", "conditions": "Gibson et al., Eur J Pharmacol 2006; cited from earlier work"}, "PAF": {"system": "PAF", "conditions": "reported; cited from earlier work"}, "PDE 3A": {"target": "PDE 3A (Homo sapiens, UniProt Q14432)", "sequence (Q14432 whole entry)": "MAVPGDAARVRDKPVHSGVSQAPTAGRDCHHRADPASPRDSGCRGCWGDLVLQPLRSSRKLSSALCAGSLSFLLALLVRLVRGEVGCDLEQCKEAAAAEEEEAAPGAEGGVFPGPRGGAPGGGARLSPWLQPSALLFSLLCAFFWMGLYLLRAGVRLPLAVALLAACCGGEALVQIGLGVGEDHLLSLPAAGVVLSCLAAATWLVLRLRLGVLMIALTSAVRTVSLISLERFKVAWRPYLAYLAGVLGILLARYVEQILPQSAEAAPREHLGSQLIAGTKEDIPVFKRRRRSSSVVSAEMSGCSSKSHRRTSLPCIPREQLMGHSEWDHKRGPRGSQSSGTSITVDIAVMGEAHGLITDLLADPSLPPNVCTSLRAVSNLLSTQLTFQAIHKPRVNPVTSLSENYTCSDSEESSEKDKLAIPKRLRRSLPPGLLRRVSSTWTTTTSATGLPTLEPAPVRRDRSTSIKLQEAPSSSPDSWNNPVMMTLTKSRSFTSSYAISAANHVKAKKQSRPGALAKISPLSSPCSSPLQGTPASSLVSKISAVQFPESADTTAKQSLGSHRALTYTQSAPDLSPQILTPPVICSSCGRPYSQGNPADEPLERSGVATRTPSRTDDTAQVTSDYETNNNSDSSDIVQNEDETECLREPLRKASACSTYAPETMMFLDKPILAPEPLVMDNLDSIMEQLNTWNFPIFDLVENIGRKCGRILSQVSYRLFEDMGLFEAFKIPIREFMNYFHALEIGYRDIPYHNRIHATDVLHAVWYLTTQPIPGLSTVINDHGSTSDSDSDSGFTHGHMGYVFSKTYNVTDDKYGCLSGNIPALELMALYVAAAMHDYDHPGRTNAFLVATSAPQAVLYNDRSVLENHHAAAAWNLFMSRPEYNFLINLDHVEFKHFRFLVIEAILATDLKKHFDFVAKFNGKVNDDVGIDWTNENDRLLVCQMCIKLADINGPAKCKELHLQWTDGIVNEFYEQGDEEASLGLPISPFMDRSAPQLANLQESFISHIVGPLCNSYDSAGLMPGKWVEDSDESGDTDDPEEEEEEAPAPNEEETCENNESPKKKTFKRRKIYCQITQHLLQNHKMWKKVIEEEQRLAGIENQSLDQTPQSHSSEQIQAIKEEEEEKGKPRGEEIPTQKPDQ", "conditions": "Gibson et al., Eur J Pharmacol 2006; cited from earlier work"}, "[1]": {"target": "toll-like receptor-4 (TLR4) (Homo sapiens, UniProt O00206)", "sequence (O00206 24-839, species assumed)": "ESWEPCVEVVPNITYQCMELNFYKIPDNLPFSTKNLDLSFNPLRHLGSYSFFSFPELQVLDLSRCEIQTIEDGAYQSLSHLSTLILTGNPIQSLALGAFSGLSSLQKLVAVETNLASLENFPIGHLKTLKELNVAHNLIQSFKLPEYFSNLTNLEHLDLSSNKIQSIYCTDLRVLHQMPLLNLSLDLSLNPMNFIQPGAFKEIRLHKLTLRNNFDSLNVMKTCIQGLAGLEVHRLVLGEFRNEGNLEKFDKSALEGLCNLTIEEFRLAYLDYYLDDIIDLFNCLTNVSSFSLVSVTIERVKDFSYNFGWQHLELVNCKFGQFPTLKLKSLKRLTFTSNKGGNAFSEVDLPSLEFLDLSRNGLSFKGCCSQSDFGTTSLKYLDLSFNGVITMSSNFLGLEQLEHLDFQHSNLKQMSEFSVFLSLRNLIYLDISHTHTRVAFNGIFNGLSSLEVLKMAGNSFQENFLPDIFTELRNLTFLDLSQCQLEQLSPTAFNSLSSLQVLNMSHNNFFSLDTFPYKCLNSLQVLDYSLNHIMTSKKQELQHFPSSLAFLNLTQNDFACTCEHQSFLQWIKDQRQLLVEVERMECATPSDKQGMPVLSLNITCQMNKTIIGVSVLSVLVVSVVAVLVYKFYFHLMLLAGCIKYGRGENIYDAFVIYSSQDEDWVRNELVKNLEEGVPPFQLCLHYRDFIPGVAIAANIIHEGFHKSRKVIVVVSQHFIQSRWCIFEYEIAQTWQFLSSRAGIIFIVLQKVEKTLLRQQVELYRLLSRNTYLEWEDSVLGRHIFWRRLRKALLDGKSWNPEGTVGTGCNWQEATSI", "conditions": "Yang et al., Cell Death and Disease 2016; cited from earlier work"}, "[2]": {"target": "T1, macrophage inhibitory factor (MIF) (Homo sapiens, UniProt P14174)", "T1 sequence (P14174 2-115 limits assumed)": "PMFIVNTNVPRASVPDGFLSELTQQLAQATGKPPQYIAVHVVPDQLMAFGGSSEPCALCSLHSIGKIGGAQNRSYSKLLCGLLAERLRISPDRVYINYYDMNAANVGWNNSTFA", "conditions": "Cho et al., PNAS-USA 2010; cited from earlier work"}, "PDE 10A1": {"target": "PDE 10A1 (Homo sapiens, UniProt Q9Y233)", "sequence (Q9Y233 1-779 isoform Q9Y233-1)": "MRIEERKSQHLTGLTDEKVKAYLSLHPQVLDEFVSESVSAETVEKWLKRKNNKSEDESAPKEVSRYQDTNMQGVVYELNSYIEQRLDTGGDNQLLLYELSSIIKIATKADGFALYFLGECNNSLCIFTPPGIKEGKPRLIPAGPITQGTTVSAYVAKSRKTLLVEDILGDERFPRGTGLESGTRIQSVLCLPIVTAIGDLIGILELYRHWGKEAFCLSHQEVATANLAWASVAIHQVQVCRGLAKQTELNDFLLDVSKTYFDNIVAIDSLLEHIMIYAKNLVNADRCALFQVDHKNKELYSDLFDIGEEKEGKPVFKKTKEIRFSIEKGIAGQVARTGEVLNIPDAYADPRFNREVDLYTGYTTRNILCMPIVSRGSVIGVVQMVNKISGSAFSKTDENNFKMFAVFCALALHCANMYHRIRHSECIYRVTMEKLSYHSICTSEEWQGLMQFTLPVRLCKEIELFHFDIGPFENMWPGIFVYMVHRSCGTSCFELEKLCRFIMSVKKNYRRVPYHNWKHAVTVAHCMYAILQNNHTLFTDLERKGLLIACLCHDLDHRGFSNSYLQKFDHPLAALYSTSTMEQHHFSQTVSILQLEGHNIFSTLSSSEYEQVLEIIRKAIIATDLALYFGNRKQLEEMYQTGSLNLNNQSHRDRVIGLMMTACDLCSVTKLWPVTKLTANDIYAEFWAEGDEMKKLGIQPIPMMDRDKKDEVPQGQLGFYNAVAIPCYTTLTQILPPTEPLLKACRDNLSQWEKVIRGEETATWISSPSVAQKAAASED", "conditions": "Gibson et al., Eur J Pharmacol 2006; cited from earlier work"}, "TNFα": {"system": "TNFα", "assay": "Spike protein-mediated TNFα release from human monocyte-derived microglia (iMDM)", "assay_type": "cell-based", "conditions": "for Dose dependence of TNFα reduction: ibudilast 1, 10 or 100 μM"}, "PDE 11A1": {"target": "PDE 11A1 (Homo sapiens, UniProt Q9HCR9)", "sequence (Q9HCR9 445-933)": "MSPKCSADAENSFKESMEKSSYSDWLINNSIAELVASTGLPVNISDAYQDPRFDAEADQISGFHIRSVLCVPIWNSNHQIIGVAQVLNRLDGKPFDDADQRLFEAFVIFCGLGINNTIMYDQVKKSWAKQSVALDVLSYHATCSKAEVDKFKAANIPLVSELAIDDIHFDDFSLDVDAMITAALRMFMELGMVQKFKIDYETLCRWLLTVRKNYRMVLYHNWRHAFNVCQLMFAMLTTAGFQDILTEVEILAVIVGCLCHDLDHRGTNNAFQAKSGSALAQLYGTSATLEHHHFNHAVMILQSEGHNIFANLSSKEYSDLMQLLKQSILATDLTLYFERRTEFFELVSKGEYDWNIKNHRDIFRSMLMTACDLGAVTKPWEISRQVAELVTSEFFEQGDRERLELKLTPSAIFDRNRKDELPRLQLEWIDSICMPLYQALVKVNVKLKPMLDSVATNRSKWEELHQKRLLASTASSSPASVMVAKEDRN", "conditions": "Gibson et al., Eur J Pharmacol 2006; cited from earlier work"}, "leukotriene D4": {"system": "leukotriene D4", "conditions": "reported; cited from earlier work"}, "IL-6": {"system": "IL-6", "assay": "Spike protein-mediated IL-6 release from human monocyte-derived microglia (iMDM)", "assay_type": "cell-based"}, "MIF": {"system": "MIF", "assay": "Plasma level of MIF", "conditions": "found by the inventors"}, "[3]": {"conditions": "Sanftner et al., Xenobiotica 2009; cited from earlier work"}}, "data": [{"molecule": "CC(C)C(=O)c1c(C(C)C)nn2ccccc12", "note": "[Ibudilast, 2-methyl-1-(2-(1-methylethyl)pyrazolo (1,5-a)pyridin-3-yl) 1-propanone]", "values": [{"measurement": "PDE 4 inhibition", "setting": "PDE 4", "result": "selective inhibitor"}, {"measurement": "PAF antagonistic activity", "setting": "PAF", "result": "antagonistic activities"}, {"measurement": "PDE 3A inhibition", "setting": "PDE 3A", "result": "selective inhibitor"}, {"measurement": "TLR4 antagonistic activity", "setting": "[1]", "result": "antagonistic activity"}, {"measurement": "HPP tautomerase activity of MIF", "setting": "[2]", "result": "allosteric inhibitor"}, {"measurement": "PDE 10A1 inhibition", "setting": "PDE 10A1", "result": "selective inhibitor"}, {"measurement": "Dose dependence of TNFα reduction", "setting": "TNFα; \"Omicron\" spike protein (1.0 μg/ml) with cross-linker, all 3 donors", "result": "Dose-dependent curves are observed"}, {"measurement": "Dose dependence of TNFα reduction", "setting": "TNFα; \"Omicron\" spike protein (5.0 μg/ml) with cross-linker, donor 3", "result": "Dose-dependent curves are observed"}, {"measurement": "TNFα levels elevated by \"Omicron\" spike protein", "setting": "TNFα; \"Omicron\" spike protein, under certain test conditions, FIGS. 6-8", "result": "reduction by ibudilast was evident under certain test conditions"}, {"measurement": "(LPS+spike protein)-evoked levels of TNFα", "setting": "TNFα; all donors, FIGS. 1-3", "result": "reduced"}, {"measurement": "TNFα levels", "setting": "TNFα; iMDM, […], ibudilast 1.0, 10, 100 μM", "result": "reduce"}, {"measurement": "PDE 11A1 inhibition", "setting": "PDE 11A1", "result": "selective inhibitor"}, {"measurement": "leukotriene D4 antagonistic activity", "setting": "leukotriene D4", "result": "antagonistic activities"}, {"measurement": "(LPS+spike protein)-evoked levels of IL-6", "setting": "IL-6; donors 2 and 3, FIGS. 4-5", "result": "reduced"}, {"measurement": "IL-6 levels", "setting": "IL-6; iMDM, \"low\" concentration (10 ng/mL) of LPS added with the spike proteins (all variants), ibudilast 1.0, 10, 100 μM", "result": "reduce"}, {"measurement": "plasma level of MIF", "setting": "MIF", "result": "lowers plasma level of MIF"}, {"measurement": "CNS penetration", "setting": "[3]", "result": "good CNS penetration"}]}]}
